For three compounds, solubility and IC50 results are on record in patent EP0987250A1, “INDOLE DICARBOXYLIC ACID DERIVATIVES” (SHIONOGI & CO., LTD., priority 1997, dated 1998).

Series [1] can be described thus: Evaluation of solubility in water. Format: physicochemical. The conditions noted are these: thermodynamic from solid; Na salt: monosodium salt of 10 and 21, disodium salt (20) of 11; water added dropwise by 10 µl; corrected for mg in 1 ml at 23°C. The procedure:
A solution of 10.3 mg (24.3 µmol) of compound (11) in 4.85 ml (48.6 µmol) of a 0.01 M methanolic solution of sodium methylate was filtered through a Millipore filter and then concentrated. The resulting residue was dried under reduced pressure to obtain disodium salt (20).

For series [2], the target named is T1, human sPLA2 (Homo sapiens, UniProt P14555).
T1 sequence (P14555 21-144): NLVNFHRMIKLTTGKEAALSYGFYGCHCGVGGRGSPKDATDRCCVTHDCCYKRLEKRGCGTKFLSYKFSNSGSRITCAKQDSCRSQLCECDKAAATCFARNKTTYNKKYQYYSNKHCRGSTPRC
Description: In vitro test for sPLA2-inhibitory action by PC/DOC method. Format: biochemical. Conditions: PC/DOC = 1 mM/3 mM; Tris buffer 50 mM, pH 8.0; 40°C for 30 minutes; oleic acid measured by HPLC.
Description: A 50 mM solution of 1-palmitoyl-1-oleoyl-sn-glycero-3-phosphatidylcholine in chloroform (PC) was used as a substrate. A 150 mM solution of sodium deoxycholate in methanol (DOC) was used as a surface-active agent
First, the substrate and the surface-active agent were transferred into an Eppendorf tube and the solvent was evaporated by applying a nitrogen stream. Then, the tube was placed in a desiccator and evacuated with a pump to complete dryness. Thereto was added water in an amount to be used for the assay and the solution was stirred for 1 minute. The final concentrations were adjusted so as to make PC/DOC = 1 mM/3 mM.
As the buffer solution for measurement was prepared a Tris buffer solution (50 mM, pH 8.0) containing 150 mM sodium chloride, calcium chloride (10 mM), and bovine serum albumin (1 mg/ml).
To a test compound solution were added the substrate solution and the buffer solution for measurement prepared as described above and the resulting mixture was stirred to mix. […] HPLC analysis was carried out under the following analysis conditions: Column: Supersphere ^R60 RP-8 (Merck & Co.) Mobile: Phase: Acetonitrile : Distilled water (93:7) Detection: Absorbance at 254 nm
The inhibitory activity of the compound was calculated from the amount of oleic acid thus-measured.

For the compound `CCc1c(C(=O)C(N)=O)c2c(OCC(=O)O)cc(C(=O)O)cc2n1Cc1ccccc1` [Compound 11, 1-Benzyl-6-carboxy-4-carboxymethyloxy-2-ethyl-3-oxamoyl-1H-indole], in series [1], the solubility (usually the dissolved amount per volume that the medium holds) amounted to 228 mg/mL. In addition, in series [2], half-maximal inhibition (IC50) was put at 0.0438 µM.
`CCc1c(C(=O)C(N)=O)c2c(OCC(=O)O)cccc2n1Cc1ccccc1` [Compound 21, reference compound]: the solubility in series [1] turned out to be 1.4 mg/mL.
Consider `CCc1c(C(=O)C(N)=O)c2c(OCC(=O)O)cc(C(=O)OC)cc2n1Cc1ccccc1` [compound 10], for which the solubility in series [1] is 68 mg/mL. Moreover, it took 0.0017 µM to reach half-maximal inhibition in series [2] (IC50).
